Measured values taken from patent publication US8471005B2 (Cephalon, Inc., priority 2008, dated 2013).
Read-outs that look alike come from different tables or passages of the source.

Legend:
[1] = biological target: T1, ALK (Homo sapiens, UniProt Q9UM73); experiment: ALK Kinase Assay (ELISA/TRF, PLC-γ substrate); assay type: biochemical; details: read-out: ALK Potency
T1 construct: host or cells: baculovirus expression system
In short: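 Wells were coated with 10 μg/mL phospholipase C-γ substrate in TBS, and the reaction was started by adding 30 ng/ml ALK enzyme and run at 37° C for 15 minutes. Phosphorylated product was detected with Eu-N1-labeled PT66 antibody, and IC50 values came from sigmoidal variable-slope fits of percent inhibition against log concentration.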

[2] = biological target: T2, JAK2 (Homo sapiens, UniProt O60674); experiment: Recombinant Human JAK2 Kinase Assay (TRF); assay type: biochemical; details: read-out: JAK2 Potency
T2 construct: host or cells: baculovirus expression system
T2 sequence (O60674 whole entry): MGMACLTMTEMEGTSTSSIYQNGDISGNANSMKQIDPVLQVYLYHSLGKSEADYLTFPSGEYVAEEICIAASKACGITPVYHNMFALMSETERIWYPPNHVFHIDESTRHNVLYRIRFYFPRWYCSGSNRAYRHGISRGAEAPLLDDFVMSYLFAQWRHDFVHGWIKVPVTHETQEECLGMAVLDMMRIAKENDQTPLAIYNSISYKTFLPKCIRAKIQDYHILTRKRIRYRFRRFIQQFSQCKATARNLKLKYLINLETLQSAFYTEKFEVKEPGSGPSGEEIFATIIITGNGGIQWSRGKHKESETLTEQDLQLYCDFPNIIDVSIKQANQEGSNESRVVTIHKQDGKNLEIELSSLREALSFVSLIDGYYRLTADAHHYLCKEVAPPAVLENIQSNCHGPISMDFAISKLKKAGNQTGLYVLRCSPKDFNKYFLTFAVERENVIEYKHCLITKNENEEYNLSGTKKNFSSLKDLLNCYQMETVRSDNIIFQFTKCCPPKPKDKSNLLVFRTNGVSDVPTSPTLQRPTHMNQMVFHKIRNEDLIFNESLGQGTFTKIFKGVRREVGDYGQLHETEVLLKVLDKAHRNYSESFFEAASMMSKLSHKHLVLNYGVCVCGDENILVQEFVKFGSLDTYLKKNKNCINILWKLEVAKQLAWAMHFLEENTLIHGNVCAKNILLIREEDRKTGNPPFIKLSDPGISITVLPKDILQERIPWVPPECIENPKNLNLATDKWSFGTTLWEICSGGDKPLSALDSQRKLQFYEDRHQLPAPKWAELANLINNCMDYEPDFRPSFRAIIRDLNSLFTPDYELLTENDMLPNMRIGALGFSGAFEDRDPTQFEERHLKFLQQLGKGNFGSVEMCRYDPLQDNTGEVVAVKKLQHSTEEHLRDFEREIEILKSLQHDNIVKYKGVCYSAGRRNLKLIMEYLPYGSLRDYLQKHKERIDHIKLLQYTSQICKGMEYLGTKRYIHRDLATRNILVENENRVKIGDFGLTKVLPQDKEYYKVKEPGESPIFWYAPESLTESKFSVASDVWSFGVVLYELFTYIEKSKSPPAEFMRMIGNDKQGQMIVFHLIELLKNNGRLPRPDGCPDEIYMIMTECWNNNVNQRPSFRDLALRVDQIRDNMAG
In short: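 Europium-labelled PY100 antibody reported tyrosine phosphorylation of a Neutravidin-captured biotinyl 15-mer peptide by JAK2 (baculovirus-expressed, 15 ng/ml). Conditions: 20 mM HEPES pH 7.2, 0.2 μM ATP, 1 mM MnCl2, 0.1% BSA, DMSO 2.5% final, 20 min at room temperature.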

[3] = ALK kinase inhibition, 1 μM ATP
[4] = JAK2 kinase inhibition, 0.2 μM ATP

T1 sequence (Q9UM73 19-1620): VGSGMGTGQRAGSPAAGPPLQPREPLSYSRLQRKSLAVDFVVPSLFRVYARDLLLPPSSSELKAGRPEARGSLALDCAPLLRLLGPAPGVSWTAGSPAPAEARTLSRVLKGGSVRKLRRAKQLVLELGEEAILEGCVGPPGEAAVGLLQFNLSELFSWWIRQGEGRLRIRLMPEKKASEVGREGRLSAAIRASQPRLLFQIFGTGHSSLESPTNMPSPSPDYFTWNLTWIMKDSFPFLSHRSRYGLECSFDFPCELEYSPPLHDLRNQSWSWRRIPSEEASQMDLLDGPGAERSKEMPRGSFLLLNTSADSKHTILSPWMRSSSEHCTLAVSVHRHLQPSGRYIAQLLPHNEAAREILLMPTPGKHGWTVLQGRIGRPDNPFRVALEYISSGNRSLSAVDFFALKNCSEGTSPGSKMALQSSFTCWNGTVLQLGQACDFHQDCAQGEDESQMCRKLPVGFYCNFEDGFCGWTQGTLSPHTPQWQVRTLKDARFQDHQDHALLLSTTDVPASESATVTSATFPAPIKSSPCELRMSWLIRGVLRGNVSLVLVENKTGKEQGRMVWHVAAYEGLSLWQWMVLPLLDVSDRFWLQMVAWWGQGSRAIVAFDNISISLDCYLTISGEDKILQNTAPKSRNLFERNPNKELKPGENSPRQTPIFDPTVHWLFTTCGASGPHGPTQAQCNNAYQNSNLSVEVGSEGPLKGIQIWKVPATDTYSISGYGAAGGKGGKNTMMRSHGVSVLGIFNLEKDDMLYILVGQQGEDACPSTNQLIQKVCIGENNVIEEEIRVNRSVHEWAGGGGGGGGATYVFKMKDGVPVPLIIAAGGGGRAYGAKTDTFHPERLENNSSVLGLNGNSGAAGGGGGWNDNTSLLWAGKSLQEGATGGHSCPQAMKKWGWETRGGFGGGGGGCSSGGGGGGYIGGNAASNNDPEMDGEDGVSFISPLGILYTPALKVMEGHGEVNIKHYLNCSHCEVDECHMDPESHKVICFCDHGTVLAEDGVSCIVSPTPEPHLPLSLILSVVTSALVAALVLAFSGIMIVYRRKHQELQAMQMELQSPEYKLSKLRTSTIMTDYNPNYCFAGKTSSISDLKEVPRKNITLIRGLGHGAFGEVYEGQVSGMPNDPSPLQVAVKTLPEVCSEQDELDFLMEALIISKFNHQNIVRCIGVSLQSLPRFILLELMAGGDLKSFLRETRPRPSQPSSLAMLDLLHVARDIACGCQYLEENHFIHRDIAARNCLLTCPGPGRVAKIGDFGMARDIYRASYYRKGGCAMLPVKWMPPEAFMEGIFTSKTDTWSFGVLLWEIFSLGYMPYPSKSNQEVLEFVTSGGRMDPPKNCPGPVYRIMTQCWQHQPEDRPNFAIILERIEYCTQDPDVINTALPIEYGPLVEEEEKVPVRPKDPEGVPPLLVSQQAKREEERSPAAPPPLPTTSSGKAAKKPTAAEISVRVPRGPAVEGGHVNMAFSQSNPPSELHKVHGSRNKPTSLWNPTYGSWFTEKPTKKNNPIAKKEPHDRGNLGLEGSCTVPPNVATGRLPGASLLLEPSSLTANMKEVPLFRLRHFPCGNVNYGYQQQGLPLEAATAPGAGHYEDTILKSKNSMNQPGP

Compound	IC50 ([1]; ALK Kinase Inhibition) [µM]	IC50 ([2]; JAK2 Kinase Inhibition) [µM]	IC50 [1, 3] [µM]	IC50 [2, 4] [µM]
COc1cc(Nc2ncc3ccc(-c4ccccc4OC)n3n2)cc(OC)c1 [Example 158, (3,5-Dimethoxy-phenyl)-[7-(2-methoxy-phenyl)-pyrrolo[2,1-f][1,2,4]triazin-2-yl]-amine]	0.1 to 1	< 0.1	–	–
COc1cc(Nc2ncc3ccc(-c4cccc(Cl)c4)n3n2)ccc1N1CCN(C)CC1 [Example 64, [7-(3-Chloro-phenyl)-pyrrolo[2,1-f][1,2,4]triazin-2-yl]-[3-methoxy-4-(4-methyl-piperazin-1-yl)-phenyl]-amine]	< 0.1	< 0.1	–	–
Clc1cccc(-c2ccc3cnc(Nc4ccc(N5CCCCC5)cc4)nn23)c1 [Example 49, [7-(3-Chloro-phenyl)-pyrrolo[2,1-f][1,2,4]triazin-2-yl]-(4-piperidin-1-yl-phenyl)-amine]	> 10	< 0.1	–	–
CC(C)(C)NS(=O)(=O)c1cccc(-c2ccc3cnc(Nc4ccc(CN5CCS(=O)(=O)CC5)cc4)nn23)c1 [Example 1057, N-tert-Butyl-3-{2-[4-(1,1-dioxo-1 $1(6)-thiomorpholin-4-ylmethyl)-phenylamino]-pyrrolo[2,1-f][1,2,4]triazin-7-yl}-benzenesulfonamide]	–	–	0.1 to 1	< 0.1
COc1ccncc1-c1ccc2cnc(Nc3ccc(N4CCN(C)CC4)cc3)nn12 [Example 1210, [7-(4-Methoxy-pyridin-3-yl)-pyrrolo[2,1-f][1,2,4]triazin-2-yl]-[4-(4-methyl-piperazin-1-yl)-phenyl]-amine]	–	–	0.1 to 1	< 0.1
COc1cc(CN2CCN(C)CC2)ccc1Nc1ncc2ccc(-c3ccccc3OC)n2n1 [Example 1252, [2-Methoxy-4-(4-methyl-piperazin-1-ylmethyl)-phenyl]-[7-(2-methoxy-phenyl)-pyrrolo[2,1-f][1,2,4]triazin-2-yl]-amine]	–	–	< 0.1	0.1 to 1
COc1ccc(Nc2ncc3ccc(-c4cc(Cl)ccc4OC)n3n2)cc1OC [Example 151, [7-(5-Chloro-2-methoxy-phenyl)-pyrrolo[2,1-f][1,2,4]triazin-2-yl]-(3,4-dimethoxy-phenyl)-amine]	0.1 to 1	< 0.1	–	–
COc1ccccc1-c1ccc2cnc(Nc3ccn(CC(=O)N4CCOCC4)n3)nn12 [Example 1111, 2-{3-[7-(2-Methoxy-phenyl)-pyrrolo[2,1-f][1,2,4]triazin-2-ylamino]-pyrazol-1-yl}-1-morpholin-4-yl-ethanone]	–	–	0.1 to 1	< 0.1
CN1CCN(c2ccc(Nc3ncc4ccc(-c5ccc(CNCCS(C)(=O)=O)cc5)n4n3)cc2)CC1 [Example 1208, (7-{4-[(2-Methanesulfonyl-ethylamino)-methyl]-phenyl}-pyrrolo[2,1-f][1,2,4]triazin-2-yl)-[4-(4-methyl-piperazin-1-yl)-phenyl]-amine]	–	–	0.1 to 1	< 0.1
CN1CCN(c2cccc(Nc3ncc4ccc(-c5cnn(CCCO)c5)n4n3)c2)CC1 [Example 976, 3-(4-{2-[3-(4-Methyl-piperazin-1-yl)-phenylamino]-pyrrolo[2,1-f][1,2,4]triazin-7-yl}-pyrazol-1-yl)-propan-1-ol]	–	–	0.1 to 1	< 0.1
CN(c1ccccc1-c1ccc2cnc(Nc3ccc(N4CCN(CCO)CC4)cc3)nn12)S(C)(=O)=O [Example 1175, N-[2-(2-{4-[4-(2-Hydroxy-ethyl)-piperazin-1-yl]-phenylamino}-pyrrolo[2,1-f][1,2,4]triazin-7-yl)-phenyl]-N-methyl-methanesulfonamide]	–	–	< 0.1	< 0.1
O=S(=O)(NCCO)c1cccc(-c2ccc3cnc(Nc4ccc(N5CCOCC5)cc4)nn23)c1 [Example 368, N-(2-Hydroxy-ethyl)-3-[2-(4-morpholin-4-yl-phenylamino)-pyrrolo[2,1-f][1,2,4]triazin-7-yl]-benzenesulfonamide]	0.1 to 1	< 0.1	–	–
COc1cc(C2CCN(CC(=O)OC(C)(C)C)CC2)ccc1Nc1ncc2ccc(-c3ccccc3OC)n2n1 [Example 1277, (4-{3-Methoxy-4-[7-(2-methoxy-phenyl)-pyrrolo[2,1-f][1,2,4]triazin-2-ylamino]-phenyl}-piperidin-1-yl)-acetic acid tert-butyl ester]	–	–	0.1 to 1	1 to 10
COc1ccccc1-c1ccc2cnc(Nc3ccc(N4CCN(C)CC4)nc3)nn12 [Example 1108, [7-(2-Methoxy-phenyl)-pyrrolo[2,1-f][1,2,4]triazin-2-yl]-[6-(4-methyl-piperazin-1-yl)-pyridin-3-yl]-amine]	–	–	0.1 to 1	< 0.1
COc1cc(N2CCN(C[C@H](C)O)CC2)c(F)cc1Nc1ncc2ccc(-c3ccccc3OC)n2n1 [Example 1480, (S)-1-(4-{2-Fluoro-5-methoxy-4-[7-(2-methoxy-phenyl)-pyrrolo[2,1-f][1,2,4]triazin-2-ylamino]-phenyl}-piperazin-1-yl)-propan-2-ol]	< 0.1	0.1 to 1	–	–
COc1ccccc1-c1ccc2cnc(-c3nc4cc(N5CCN(C)CC5)ccc4[nH]3)nn12 [Example 1505, 7-(2-Methoxy-phenyl)-2-[5-(4-methyl-piperazin-1-yl)-1H-benzimidazol-2-yl]-pyrrolo[2,1-f][1,2,4]triazine]	1 to 10	1 to 10	–	–
COc1ccccc1-c1ccc2cnc(Nc3cccc(C4CCN(C)CC4)c3OC)nn12 [Example 775, [2-Methoxy-3-(1-methyl-piperidin-4-yl)-phenyl]-[7-(2-methoxy-phenyl)-pyrrolo[2,1-f][1,2,4]triazin-2-yl]-amine]	–	–	< 0.1	< 0.1
COc1cc(N2CCC(C(=O)N3CCN(C)CC3)CC2)ccc1Nc1ncc2ccc(-c3ccccc3N(C)S(C)(=O)=O)n2n1 [Example 459, N-[2-(2-{2-Methoxy-4-[4-(4-methyl-piperazine-1-carbonyl)-piperidin1-yl]-phenylamino}-pyrrolo[2,1-f][1,2,4]triazin-7-yl)-phenyl]-N-methyl-methanesulfonamide]	< 0.1	0.1 to 1	–	–
COc1cc(N2CCCN(C[C@H](O)CO)CC2)ccc1Nc1ncc2ccc(-c3ccccc3N(C)S(C)(=O)=O)n2n1 [Example 773, N-[2-(2-{4-[4-((S)-2,3-Dihydroxy-propyl)-[1,4]diazepan-1-yl]-2-methoxy-phenylamino}-pyrrolo[2,1-f][1,2,4]triazin-7-yl)-phenyl]-N-methyl-methanesulfonamide]	–	–	< 0.1	0.1 to 1
COc1ccccc1-c1ccc2cnc(Nc3ccc(C4(C#N)CCN(CC(N)=O)CC4)cc3)nn12 [Example 1548, 2-(4-Cyano-4-{4-[7-(2-methoxy-phenyl)-pyrrolo[2,1-f][1,2,4]triazin-2-ylamino]-phenyl}-piperidin-1-yl)-acetamide]	0.1 to 1	< 0.1	–	–
CN(c1ncccc1Nc1ccc2cnc(Nc3ccc(N4CCOCC4)cc3)nn12)S(C)(=O)=O [Example 385, N-Methyl-N-{3-[2-(4-morpholin-4-yl-phenylamino)-pyrrolo[2,1-f][1,2,4]triazin-7-ylamino]-pyridin-2-yl}-methanesulfonamide]	1 to 10	< 0.1	–	–
COCc1ccccc1-c1ccc2cnc(Nc3ccc(N4CCC(N5CCN(C)CC5)CC4)cc3OC)nn12 [Example 538, [7-(2-Methoxymethyl-phenyl)-pyrrolo[2,1-f][1,2,4]triazin-2-yl]-{2-methoxy-4-[4-(4-methyl-piperazin-1-yl)-piperidin-1-yl]-phenyl}-amine]	–	–	< 0.1	< 0.1
C[C@@H](O)CN1CCN(c2ccc(Nc3ncc4ccc(-c5ccc(S(C)(=O)=O)cc5)n4n3)cc2)CC1 [Example 209, (R)-1-(4-{4-[7-(4-Methanesulfonyl-phenyl)-pyrrolo[2,1-f][1,2,4]triazin-2-ylamino]-phenyl}-piperazin-1-yl)-propan-2-ol]	0.1 to 1	< 0.1	–	–
CN(c1ccccc1-c1ccc2cnc(Nc3ccc4c(c3)NC(=O)C(C)(C)O4)nn12)S(C)(=O)=O [Example 1371, N-{2-[2-(2,2-Dimethyl-3-oxo-3,4-dihydro-2H-1,4-benzoxazin-6-ylamino)-pyrrolo[2,1-f][1,2,4]triazin-7-yl]-phenyl}-N-methyl-methanesulfonamide]	0.1 to 1	< 0.1	–	–
N-{2-[2-(4-{4-[1-(2-Hydroxy-ethyl)-piperidin-4-yl]-[1,4]diazepan-1-yl}-2-methoxy-phenylamino)-pyrrolo[2,1-f][1,2,4]triazin-7-yl]-phenyl}-N-methyl-methanesulfonamide [Example 802]	–	–	< 0.1	1 to 10
C[C@H](O)CN1CCN(c2ccc(Nc3ncc4ccc(-c5cccc(Cl)c5)n4n3)cc2)CC1 [Example 204, (S)-1-(4-{4-[7-(3-Chloro-phenyl)-pyrrolo[2,1-f][1,2,4]triazin-2-ylamino]-phenyl}-piperazin-1-yl)-propan-2-ol]	< 0.1	< 0.1	–	–
COc1cc(N2CCC(N3CCOCC3)CC2)ccc1Nc1ncc2ccc(-c3ccccc3OC(C)C)n2n1 [Example 1451, [7-(2-Isopropoxy-phenyl)-pyrrolo[2,1-f][1,2,4]triazin-2-yl]-[2-methoxy-4-(4-morpholin-4-yl-piperidin-1-yl)-phenyl]-amine]	< 0.1	< 0.1	–	–
COc1ccc(Cl)cc1-c1ccc2cnc(Nc3ccc(C(=O)N4CCOCC4)cc3)nn12 [Example 315, {4-[7-(5-Chloro-2-methoxy-phenyl)-pyrrolo[2,1-f][1,2,4]triazin-2-ylamino]-phenyl}-morpholin-4-yl-methanone]	0.1 to 1	< 0.1	–	–
